What was measured:
[1] = test system: C57/black 6 mice temporal cortex slices; assay: Slice electrophysiology assay (LTP, theta-burst stimulation); type: cell-based; details: 1 μM compound; temporal cortex slices of C57/black 6 mice
Experimental: coronal cortical slices (400 μm) containing temporal cortex from 2- to 3-month-old C57-Black-6 mice male littermates (from Elevage Janvier, FRANCE) are prepared and allowed to recover in oxygenated (95% O2 and 5% CO2) warm (30° C.) artificial cerebrospinal fluid (ACSF) containing 124 mM NaCl, 5 mM KCl, 1.25 mM, NaH2PO4, 1 mM MgCl2, 2 mM CaCl2, 26 mM NaHCO3, and 10 mM dextrose.
a 10 mM DMSO stock solution is prepared for each test compound and 100 μL aliquots are stored at −20° C. On the day of experiment an aliquot is thawed and vortexed for fresh solutions preparation. The final concentration of DMSO is adjusted to 0.1% all solutions, including control ACSF solution. […]
a stimulus is applied every 30 s with an intensity settled at 40% of the maximal amplitude responses. […] Potentiation of synaptic transmission is then monitored for an additional 40 minutes period. […]
following a 10 minutes control recording period (to verify baseline stability), the compound is perfused for 20 minutes. Then, LTP is triggered and the fEPSP amplitude will be recorded for an additional 40 minutes period in the presence of compound.
fEPSP amplitudes are measured as the difference between the baseline (before stimulation) and the maximal peak amplitude. The fEPSP are normalized as a percent of the mean averaged amplitude recorded over a 10 min control period, before compound application. […]

PAK1 = PAK1 (Homo sapiens, UniProt Q13153); assay: Z'Lyte fluorescence-based (FRET) PAK kinase assay, PAK1; type: biochemical; details: 50 μM ATP
PAK1, sequence (Q13153 whole entry): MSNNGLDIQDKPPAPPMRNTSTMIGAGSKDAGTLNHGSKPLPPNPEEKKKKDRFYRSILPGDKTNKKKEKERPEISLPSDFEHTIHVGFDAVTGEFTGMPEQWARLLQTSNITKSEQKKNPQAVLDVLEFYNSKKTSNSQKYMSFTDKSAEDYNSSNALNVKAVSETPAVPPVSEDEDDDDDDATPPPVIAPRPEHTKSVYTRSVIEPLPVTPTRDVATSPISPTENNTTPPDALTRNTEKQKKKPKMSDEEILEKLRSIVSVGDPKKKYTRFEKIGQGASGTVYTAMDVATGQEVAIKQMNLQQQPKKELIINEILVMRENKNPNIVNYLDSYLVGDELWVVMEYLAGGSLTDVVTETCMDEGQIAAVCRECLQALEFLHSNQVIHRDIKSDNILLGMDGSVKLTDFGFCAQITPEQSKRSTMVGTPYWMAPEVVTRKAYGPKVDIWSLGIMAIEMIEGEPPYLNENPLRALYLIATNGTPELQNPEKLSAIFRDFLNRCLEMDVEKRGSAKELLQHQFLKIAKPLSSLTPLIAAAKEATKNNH
Experimental: (§1) A fluorescence-based assay format is used to determine IC50 values of test compounds in vitro. Purified PAK kinase is incubated with ATP, and a test compound at various concentrations and a substrate peptide containing two fluorophores. In a second step, the reaction mix is incubated with a site-specific protease that cleaves non-phosphorylated bat not phosphorylated substrate peptide, disrupting the FRET signal generated by the two fluorophores in the cleaved peptide (Z′Lyte™ Kinase assay platform; Life Technologies).
(§2) Reagents: 50 mM HEPES, pH 7.5; 0.01% BRIJ-35; 10 nM MgCl1; 1 mM EGTA, 2 uM substrate peptide Ser/Thr20 (proprietary Life Technologies Sequence), PAK enzyme [2.42-30.8 ng for PAK1, 0.29-6 ng for PAK2, 1.5-20 ng for PAK3 and 0.1-0.86 ng for PAK4; actual enzyme amounts depend on lot activity of the enzyme preparation]
(§3) Test compounds are dissolved in DMSO at various concentrations; the final DMSO concentration in the assay reaction is 1%.
(§4) ATP concentration at Kin apparent is used in the assay [50 ┌M ATP for PAK1 assay, 75 ┌M ATP for PAK2 assay, 100 μM ATP for PAK3 assay, 5 μM ATP for PAK4 assay] in a total assay volume of 10 μl. Assay reactions are incubated at room temperature for 1 hr. Following the kinase reaction, 5 μl of 1:256 dilution of development solution A (Life Technologies) is added and the reaction mix is incubated for an additional 1 hr at room temperature.
(§5) Plates are analyzed in a standard fluorescence plate reader (Tecan or equivalent) using an excitation wavelength of 400 nn and emission wavelengths of 445 nm and 520 nm.
(§6) Inhibition of kinase reaction is determined by emission ratio=emission@445 nm/emission@520 nm
as §1, with “non-phosphorylated but” for “non-phosphorylated bat”, “peptide (Z'Lyte™” for “peptide (Z′Lyte™”, “assay platform” for “assay platform;”
as §2, with “mM MgCl2;” for “nM MgCl1;”
as §4, with “at Km” for “at Kin”, “[50 μMATP” for “[50 ┌M ATP”, “75 µM” for “75 ┌M”, “[…]” for “10 μl.”, “kinase reaction.” for “kinase reaction,”, “[…]” for “5 μl”
(§7) Plates are analyzed in a standard fluorescence plate reader (Teem or equivalent) using an excitation wavelength of 400 nm and emission wavelengths of 445 nm and 520 nm.

PAK2 = PAK2 (Homo sapiens, UniProt Q13177); assay: Z'Lyte fluorescence-based (FRET) PAK kinase assay, PAK2; type: biochemical
PAK2, sequence (Q13177 whole entry): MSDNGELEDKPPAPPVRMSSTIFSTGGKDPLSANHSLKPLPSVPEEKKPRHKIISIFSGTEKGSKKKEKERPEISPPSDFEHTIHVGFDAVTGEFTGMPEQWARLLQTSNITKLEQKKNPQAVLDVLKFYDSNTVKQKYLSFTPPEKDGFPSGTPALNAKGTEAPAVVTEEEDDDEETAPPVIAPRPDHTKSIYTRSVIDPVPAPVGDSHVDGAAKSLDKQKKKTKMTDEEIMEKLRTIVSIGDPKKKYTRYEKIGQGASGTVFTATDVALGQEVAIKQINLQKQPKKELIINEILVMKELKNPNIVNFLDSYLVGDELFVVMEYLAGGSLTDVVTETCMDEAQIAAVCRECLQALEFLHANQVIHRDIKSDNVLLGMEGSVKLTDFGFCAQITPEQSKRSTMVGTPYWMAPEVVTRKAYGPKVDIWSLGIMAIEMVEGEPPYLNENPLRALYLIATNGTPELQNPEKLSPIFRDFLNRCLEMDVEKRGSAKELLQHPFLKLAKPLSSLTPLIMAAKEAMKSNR
Experimental: as §1, §2, §3, §4, §5, §6
as §1, with “non-phosphorylated but” for “non-phosphorylated bat”, “peptide (Z'Lyte™” for “peptide (Z′Lyte™”, “assay platform” for “assay platform;”
as §2, with “mM MgCl2;” for “nM MgCl1;”
as §4, with “at Km” for “at Kin”, “[50 μMATP” for “[50 ┌M ATP”, “75 µM” for “75 ┌M”, “[…]” for “10 μl.”, “kinase reaction.” for “kinase reaction,”, “[…]” for “5 μl”
as §7

PAK3 = PAK3 (Homo sapiens, UniProt O75914); assay: Z'Lyte fluorescence-based (FRET) PAK kinase assay, PAK3; type: biochemical; details: 100 μM ATP
PAK3, sequence (O75914 whole entry): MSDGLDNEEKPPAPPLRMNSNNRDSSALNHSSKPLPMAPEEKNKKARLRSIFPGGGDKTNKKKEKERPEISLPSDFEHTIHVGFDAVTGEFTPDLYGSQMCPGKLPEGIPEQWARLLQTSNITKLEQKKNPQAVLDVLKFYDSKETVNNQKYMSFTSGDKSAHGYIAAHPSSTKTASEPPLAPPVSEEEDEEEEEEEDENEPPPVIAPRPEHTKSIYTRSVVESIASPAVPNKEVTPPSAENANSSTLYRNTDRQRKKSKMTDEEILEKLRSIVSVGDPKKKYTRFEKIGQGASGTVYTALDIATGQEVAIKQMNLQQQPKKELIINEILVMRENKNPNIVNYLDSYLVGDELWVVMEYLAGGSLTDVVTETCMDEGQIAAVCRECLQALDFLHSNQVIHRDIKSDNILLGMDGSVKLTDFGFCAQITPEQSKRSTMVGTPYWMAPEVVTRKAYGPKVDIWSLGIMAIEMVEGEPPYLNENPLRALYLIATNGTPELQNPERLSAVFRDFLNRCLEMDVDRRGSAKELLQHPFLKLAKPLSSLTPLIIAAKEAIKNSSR
Experimental: as §1, §2, §3, §4, §5, §6
as §1, with “non-phosphorylated but” for “non-phosphorylated bat”, “peptide (Z'Lyte™” for “peptide (Z′Lyte™”, “assay platform” for “assay platform;”
as §2, with “mM MgCl2;” for “nM MgCl1;”
as §4, with “at Km” for “at Kin”, “[50 μMATP” for “[50 ┌M ATP”, “75 µM” for “75 ┌M”, “[…]” for “10 μl.”, “kinase reaction.” for “kinase reaction,”, “[…]” for “5 μl”
as §7

PAK4 = PAK4 (Homo sapiens, UniProt O96013); assay: Z'Lyte fluorescence-based (FRET) PAK kinase assay, PAK4; type: biochemical; details: 5 μM ATP
PAK4, sequence (O96013 whole entry): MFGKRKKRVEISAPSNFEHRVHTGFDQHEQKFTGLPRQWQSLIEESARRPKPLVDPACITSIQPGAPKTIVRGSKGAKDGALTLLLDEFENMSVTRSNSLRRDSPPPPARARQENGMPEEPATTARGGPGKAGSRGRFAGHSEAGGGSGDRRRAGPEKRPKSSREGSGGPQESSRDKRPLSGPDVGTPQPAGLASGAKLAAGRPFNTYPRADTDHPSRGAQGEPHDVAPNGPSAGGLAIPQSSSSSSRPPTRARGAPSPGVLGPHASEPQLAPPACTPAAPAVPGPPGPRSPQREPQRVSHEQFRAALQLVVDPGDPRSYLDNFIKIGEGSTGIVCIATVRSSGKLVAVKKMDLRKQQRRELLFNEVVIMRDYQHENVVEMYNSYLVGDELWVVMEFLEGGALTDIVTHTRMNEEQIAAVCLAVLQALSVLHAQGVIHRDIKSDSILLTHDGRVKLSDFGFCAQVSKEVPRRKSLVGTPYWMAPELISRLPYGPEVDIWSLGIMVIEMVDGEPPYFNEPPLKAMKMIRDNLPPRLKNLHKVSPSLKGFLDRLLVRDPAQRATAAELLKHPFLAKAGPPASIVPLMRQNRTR
Experimental: as §1, §2, §3, §4, §5, §6
as §1, with “non-phosphorylated but” for “non-phosphorylated bat”, “peptide (Z'Lyte™” for “peptide (Z′Lyte™”, “assay platform” for “assay platform;”
as §2, with “mM MgCl2;” for “nM MgCl1;”
as §4, with “at Km” for “at Kin”, “[50 μMATP” for “[50 ┌M ATP”, “75 µM” for “75 ┌M”, “[…]” for “10 μl.”, “kinase reaction.” for “kinase reaction,”, “[…]” for “5 μl”
as §7

[2] = Table 1 of Example 29 (own compound numbering)
[3] = Table 1 of Example 29 (own compound numbering), 75 µM ATP
[4] = Table 1 of Example 100, 75 μM ATP

SMILES	LTP compared to the baseline in a theta-burst stimulation protocol in the cortex [1]	IC50 (PAK1; [2]) [nM]	IC50 (PAK2; [3]) [nM]	IC50 (PAK3; [2]) [nM]	IC50 (PAK4; [2]) [nM]	IC50 (PAK1; Table 1 of Example 100) [nM]	IC50 (PAK2; [4]) [nM]	IC50 (PAK3; Table 1 of Example 100) [nM]	IC50 (PAK4; Table 1 of Example 100) [nM]
COc1cc(Nc2nccc(-c3ccc(NCCN)nc3)n2)cc(OC)c1OC [Compound A, N^1-(5-(2-(3,4,5-trimethoxyphenylamino)pyrimidin-4-yl)pyridin-2-yl)ethane-1,2-diamine]	increased LTP	–	–	–	–	–	–	–	–
CN1CCN(c2ccc(Nc3ncc4ccc(=O)n(CCc5ccccc5)c4n3)cc2)CC1 [Compound 103]	–	< 1000	< 1000	1000 to 10000	< 1000	–	–	–	–
O=c1ccc2cnc(Nc3ccc(N4CCNCC4)c(F)c3)nc2n1C1Cc2ccccc2C1 [Compound 21]	–	–	–	–	–	< 1000	< 1000	1000 to 10000	< 1000
CN1CCN(c2ccc(Nc3ncc4ccc(=O)n(Cc5ccccc5C(F)(F)F)c4n3)cc2)CC1 [Compound 42]	–	–	–	–	–	< 1000	< 1000	< 1000	< 1000
CN(C)CC(c1ccccc1)n1c(=O)ccc2cnc(Nc3ccc(N4CCN(C)CC4)cc3)nc21 (stereo not shown) [Compound 19]	–	–	–	–	–	> 10000	> 10000	> 10000	> 10000
Cc1ccccc1Cn1c(=O)ccc2cnc(Nc3ccc(N4CCN(C)CC4)cc3)nc21 [Compound 117]	–	< 1000	< 1000	< 1000	< 1000	–	–	–	–
Cc1cc(F)ccc1Cn1c(=O)ccc2cnc(Nc3ccc(N4CCN(C)CC4)cc3)nc21 [Compound 45]	–	–	–	–	–	1000 to 10000	1000 to 10000	1000 to 10000	1000 to 10000
Cc1cccnc1Cn1c(=O)ccc2cnc(Nc3ccc(N4CCN(C)CC4)cc3)nc21 [Compound 106]	–	1000 to 10000	1000 to 10000	> 10000	1000 to 10000	–	–	–	–
CC(c1ccccc1)n1c(=O)ccc2cnc(Nc3ccc(N4CCN(C)CC4)cc3)nc21 (stereo not shown) [Compound 48]	–	–	–	–	–	1000 to 10000	1000 to 10000	> 10000	1000 to 10000
CN1CCN(c2ccc(Nc3ncc4ccc(=O)n(Cc5c(F)cccc5[S+](C)[O-])c4n3)cc2)CC1 (stereo not shown) [Compound 139]	–	< 1000	1000 to 10000	< 1000	1000 to 10000	–	–	–	–
O=c1ccc2cnc(Nc3ccc(OC4CCCNC4)cc3)nc2n1Cc1ccccc1C(F)(F)F (stereo not shown) [Compound 14]	–	–	–	–	–	< 1000	< 1000	< 1000	< 1000
O=c1ccc2cnc(Nc3ccc(N4CCNCC4)cc3)nc2n1Cc1ccccc1C(F)(F)F [Compound 9]	–	–	–	–	–	< 1000	< 1000	< 1000	< 1000
CN1CCN(c2ccc(Nc3ncc4ccc(=O)n(C5CCOc6ccccc65)c4n3)cc2)CC1 (stereo not shown) [Compound 15]	–	–	–	–	–	1000 to 10000	1000 to 10000	1000 to 10000	1000 to 10000
O=c1ccc2cnc(Nc3ccc(N4CCNCC4)c(F)c3)nc2n1C1CCc2ccccc2C1 (stereo not shown) [Compound 22]	–	–	–	–	–	< 1000	< 1000	< 1000	< 1000
O=c1ccc2cnc(Nc3ccc(NC4CCCNC4)cc3)nc2n1Cc1ccccc1C(F)(F)F (stereo not shown) [Compound 7]	–	–	–	–	–	< 1000	< 1000	< 1000	< 1000
CN1CCN(c2ccc(Nc3ncc4ccc(=O)n(C5CCc6ccccc65)c4n3)cc2)CC1 (stereo not shown) [Compound 6]	–	–	–	–	–	< 1000	1000 to 10000	1000 to 10000	1000 to 10000
CN1CCCC(Nc2ccc(Nc3ncc4ccc(=O)n(Cc5ccccc5C(F)(F)F)c4n3)cc2)C1 (stereo not shown) [compound 61]	–	–	–	–	–	< 1000	< 1000	< 1000	< 1000
CN1CCN(c2ccc(Nc3ncc4ccc(=O)n(C5Cc6ccccc6C5)c4n3)cc2)CC1 [Compound 17]	–	–	–	–	–	< 1000	1000 to 10000	1000 to 10000	< 1000
Cc1cccnc1Cn1c(=O)ccc2cnc(Nc3ccc(N4CCN(C)CC4)cc3)nc21 [Compound 52]	–	–	–	–	–	1000 to 10000	1000 to 10000	> 10000	1000 to 10000
CN1CCN(c2ccc(Nc3ncc4ccc(=O)n(C5CCCc6ccccc65)c4n3)cc2)CC1 (stereo not shown) [Compound 5]	–	–	–	–	–	1000 to 10000	1000 to 10000	1000 to 10000	1000 to 10000
CN1CCN(c2ccc(Nc3ncc4ccc(=O)n(C5CCCC5)c4n3)cc2)CC1 [Compound G, 8-cyclopentyl-2-(4-(4-methylpiperazin-1-yl)phenylamino)pyrido[2,3-d]pyrimidin-7(8H)-one]	increased LTP	–	–	–	–	–	–	–	–
O=c1ccc2cnc(Nc3ccc(NC4CCNCC4)cc3)nc2n1Cc1ccccc1C(F)(F)F [Compound 8]	–	–	–	–	–	< 1000	< 1000	< 1000	< 1000
CN(c1ccc(Nc2ncc3ccc(=O)n(Cc4ccccc4C(F)(F)F)c3n2)cc1)C1CCCNC1 (stereo not shown) [Compound 13]	–	–	–	–	–	< 1000	< 1000	< 1000	< 1000
CN1CCN(c2ccc(Nc3ncc4ccc(=O)n(C5CCCC5)c4n3)cc2)CC1 [Compound 1]	–	–	–	–	–	< 1000	1000 to 10000	1000 to 10000	1000 to 10000
CN(C)CC(c1ccccc1)n1c(=O)ccc2cnc(Nc3ccc(N4CCOCC4)cc3)nc21 (stereo not shown) [Compound 16]	–	–	–	–	–	> 10000	> 10000	> 10000	> 10000
